One may read the IC50 as the point on the concentration scale where inhibition reaches its midpoint. Read a low IC50 as higher potency.

Read-outs that look alike come from different tables or passages of the source.

One data set deals with Agp 24. As to the kind of experiment: Seven month follow-up of THA vs AZT in HIV infected patients (open study): Agp 24. Format: in vivo. An excerpt:
Expressed in mean variation (%) in comparison with Do values.

Another data set concerns T4. Here is the method: Seven Month Follow-Up of Tacrine (THA) vs Zidovudine (AZT) in 72 HIV Infected Patients
Comparison of serological and clinical status of HIV infected patients after THA versus AZT treatment in an open study.
[…] (61 males, 11 females) with HIV infection ([…], 10 stages II and III), received either AZT (46 patients 600-1200 mg./day) or THA (26 patients 150-250 mg/day). In cases of intolerance or inefficacy, treatment was discontinued and patients were treated by the other drug.

A short description of data set [1]: Seven month follow-up of THA vs AZT in HIV infected patients (open study): withdrawals for toxicity. Type of data set: in vivo, human. The conditions noted are these: AZT n = 52; THA n = 51.
Procedure: 70 patients (61 males, 11 females) with HIV infection (69 stage IV, 10 stages II and III), received either AZT (46 patients 600-1200 mg./day) or THA (26 patients 150-250 mg/day).
13 patients were treated by THA alone, 20 by AZT alone, 26 by AZT then THA and 13 by THA then AZT. Mean duration of treatment was 5.8 months for 53 courses of AZT 5.4 months for 52 courses of THA.
The next data set relates to HIV. The data set is described as follows: Seven month follow-up of THA vs AZT in HIV infected patients (open study): clinical results. Type of data set: in vivo, human. The conditions noted are these: AZT n = 52; THA n = 51.
Data set [2] addresses T1, reverse transcriptase of the HIV 1 virus (Human immunodeficiency virus type 1 group M subtype B, UniProt P04585).
T1 construct: Action on Reverse Transcriptase of the HIV 1 Virus; made in house; host or cells: HIV 1 virus grown on CEM cells; virus pelleted from the culture medium and resuspended in Triton X 100 (viral lysate, not recombinant)
As to the kind of experiment: Action on reverse transcriptase of the HIV 1 virus (3H thymidine triphosphate incorporation). Type of data set: biochemical. The note with it: 50% inhibition (Di50) of HIV 1 reverse transcriptase, 37° C., 1 hour. Here is the method: For the direct study of the action of the product on the activity of the reverse transcriptase, the virus was concentrated by ultracentrifugation and the plugs of virus removed from the culture medium are resuspended in a solution containing 0.15% Triton X 100, 0.05M Tris at pH 7.8 and 20% glycerol.
These preparations, frozen at -20° C., are active for several months and served for the direct measurement of the products on enzymatic activity.
The THA is diluted as stated above and added to 40 μl of the incubation solution under a volume of 5.5 μl before the addition of 10 μl of the enzymatic preparation. Initial concentrations of the product are thus 10 times more concentrated than the final dilution in the presence of the enzyme. The controls received 5.5 μl of water.

In the case of `Cc1cn([C@H]2C[C@H](N=[N+]=[N-])[C@@H](CO)O2)c(=O)[nH]c1=O` [AZT], the “Agp 24, mean variation (%) in comparison with D0” value is -20.6% with Agp 24 (D1mth); “+3.4%” with Agp 24 (D2mth); -1% with Agp 24 (D3mth); “+55.6%” in the data set on Agp 24 (D4mth); “+36.5%” in the data set with Agp 24 (D5mth); “+173%” in the data set on Agp 24 (D6mth). In the data set on Agp 24 (D7mth), the “Agp 24, mean variation (%) in comparison with D0” value is “+142%”. For the same compound, the “T4 /mm^3, mean variation (%) in comparison with D0” value is reported as “+0.5%” with T4 (D1mth); “+8.1%” in the data set on T4 (D2mth); “+18.5%” in the data set on T4 (D3mth); “+8.8%” with T4 (D4mth); “+17.2%” with T4 (D5mth); -40% with T4 (D6mth). Also, in the data set with T4 (D7mth), the “T4 /mm^3, mean variation (%) in comparison with D0” value is listed as -40%. For the same compound, in data set [1], the “Withdrawals for toxicity, number” value worked out at 29. Further, the “Withdrawals for toxicity, percent” value in data set [1] came out at 49%. Also, in the data set with HIV, the “Deaths, number” value was 7. For the same compound, in the data set on HIV, the “Deaths, percent” value turned out to be 12%. Also, the “Kaposi Emergence, number” value in the data set with HIV was determined as 3. Besides, the “Kaposi Emergence, percent” value in the data set on HIV is recorded as 5%. Moreover, in the data set on HIV, the “Opportunistic Infections, number” value worked out at 27. Further, the “Opportunistic Infections, percent” value in the data set on HIV was 46%.

In data set [2], `O=C(O)P(=O)(O)O` [phosphonoformate] gave a 50% inhibitory concentration (IC50) of 1 µM.

Values taken from US5175172A, “Method of alleviating AIDS symptoms and compositions therefor” (priority 1988, dated 1992).
